The source of these data is ChEMBL document CHEMBL1201862, “PubChem BioAssay data set” (2004).

Some test systems named below: HT-29; IGROV-1; HOP-92; KM12; 786-0; UO-31; SF-295; SK-OV-3; OVCAR-3; SW-620; SF-268; OVCAR-5; EKVX; SNB-75; K562; COLO 205; OVCAR-8; HCT-116.
Common to all, as to experiment: growth of human tumour cells (NCI), 48 h

Each structure is given as a SMILES string.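 Values below derive from 48-hour exposures of cells grown in 96-well plates, with endpoints linearly interpolated between the two concentrations bracketing the appropriate inhibition level. GI50 marks 50% less growth.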 The source made the active and inactive calls. Cut-off read from the data, not from the text of the source: active = GI50 up to about 1.1 µM and inactive = higher. A value given as a limit tells only on which side of the number the result lay.

As for `CCOC(=O)c1c2ccc(/C=C/c3ccccn3)ccc-2c(C(=O)OCC)c1N`, the GI50 with HT-29, with IGROV-1, with HOP-92, in the assay on KM12, with 786-0 and in the assay on UO-31 was > 100 µM (inactive) each time. The GI50 in the assay on SF-295 was > 100 µM (inactive); in the assay with SK-OV-3, > 100 µM (inactive); with OVCAR-3 it was > 100 µM (inactive); with SW-620 it was > 100 µM (inactive); in the assay with SF-268 it was 0.091 µM (active); in the assay on OVCAR-5, > 100 µM (inactive). Moreover, the GI50 in the assay with EKVX, with SNB-75, in the assay with K562 and in the assay with COLO 205 was > 100 µM (inactive) throughout.
`CC[P+](C)(C)c1ccccc1`: the GI50 in the assay on OVCAR-8, in the assay on HT-29, in the assay with IGROV-1, with KM12, in the assay on 786-0 and in the assay with UO-31 was > 100 µM (inactive) throughout. In addition, the GI50 with SF-295, in the assay on SK-OV-3, in the assay with OVCAR-3, with SW-620, in the assay with SF-268 and in the assay on OVCAR-5 was > 100 µM (inactive) each time. Further, the GI50 in the assay on EKVX, in the assay with SNB-75, with K562 and in the assay with COLO 205 was > 100 µM (inactive) in each case.
Regarding `C/C(CC(=O)Nc1ccccc1[N+](=O)[O-])=N\NC(N)=O`, the GI50 in the assay on OVCAR-8, with HT-29, in the assay on IGROV-1, in the assay with HOP-92, with KM12 and in the assay on 786-0 was > 100 µM (inactive) throughout. The GI50 in the assay with UO-31, with SF-295, in the assay with SK-OV-3, in the assay with OVCAR-3, in the assay on SW-620 and with SF-268 was > 100 µM (inactive) in each case. Moreover, the GI50 with OVCAR-5, in the assay with EKVX, in the assay with SNB-75, with K562, in the assay with HCT-116 and in the assay on COLO 205 was > 100 µM (inactive) each time.
Regarding `O=C(NC1C(=O)NNC1c1cccc([N+](=O)[O-])c1)c1ccccc1` (stereo not drawn), the GI50 in the assay with OVCAR-8, with HT-29, with IGROV-1, with HOP-92, with KM12 and with 786-0 was > 100 µM (inactive) in each case. Also, the GI50 in the assay on UO-31, in the assay on SF-295, in the assay with OVCAR-3, with SW-620, in the assay on SF-268 and with OVCAR-5 was > 100 µM (inactive) in each case. Besides, the GI50 with EKVX, in the assay with SNB-75, in the assay on HCT-116 and with COLO 205 was > 100 µM (inactive) throughout.
As to `O=C(CC(=O)c1cccc2ccccc12)C(=O)Nc1ccc(Cl)cc1`, the GI50 in the assay on OVCAR-8 is > 100 µM (inactive); in the assay on HT-29, > 100 µM (inactive); with IGROV-1, > 100 µM (inactive); in the assay with HOP-92, 19.6 µM (inactive); in the assay with KM12, > 100 µM (inactive); in the assay on 786-0, > 100 µM (inactive). In addition, the GI50 in the assay on UO-31, in the assay with SF-295, in the assay with SK-OV-3, in the assay with OVCAR-3, in the assay on SW-620 and with SF-268 was > 100 µM (inactive) in each case. In addition, the GI50 in the assay on OVCAR-5, in the assay with EKVX, in the assay with K562, with HCT-116 and with COLO 205 was > 100 µM (inactive) in each case.
